Some test systems named below: PC-3 prostate; HCC-2998 colon; CAKI-1 renal; HCT-116 colon; MALME-3M melanoma; RXF 393 renal; HS 578T breast; CCRF-CEM leukemia; SF-268 CNS; SK-MEL-2 melanoma.
What all share (experiment): growth of human tumour cells (NCI), 48 h

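Where inhibition never reached the appropriate level, the endpoint shown equals the highest concentration tested. Otherwise, values were interpolated linearly from a five-concentration, 48-hour dose response in 96-well plates. Abbreviation: GI50, concentration required for 50% inhibition of growth. TGI: concentration producing complete growth inhibition.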 Bounds are passed on as bounds.

Regarding `COc1ccc2nc3c(cc2c1)C(=O)CC(C(F)(F)F)C3` (stereo not given), the GI50 is 1.08 µM in the assay with PC-3 prostate; 4.14 µM in the assay with HCC-2998 colon; 0.639 µM with CAKI-1 renal; 0.142 µM in the assay on HCT-116 colon; 2.57 µM with MALME-3M melanoma; 0.562 µM in the assay on RXF 393 renal. Also, the GI50 in the assay with HS 578T breast was 2.19 µM; in the assay with CCRF-CEM leukemia, 0.223 µM; in the assay on SF-268 CNS, 34.6 µM; in the assay on SK-MEL-2 melanoma, 0.847 µM. For the same compound, the TGI with PC-3 prostate was above 100 µM; in the assay on HCC-2998 colon it was 99.1 µM; in the assay on CAKI-1 renal it was above 100 µM; with HCT-116 colon, above 100 µM; in the assay on MALME-3M melanoma it was above 100 µM; in the assay with RXF 393 renal, 5.1 µM. In addition, the TGI in the assay with HS 578T breast, in the assay with CCRF-CEM leukemia, with SF-268 CNS and in the assay with SK-MEL-2 melanoma was above 100 µM in each case.

In the case of `CC(=O)SC(C[N+](=O)[O-])c1ccccc1` (stereo not given), the TGI turned out to be 25.7 µM in the assay on PC-3 prostate; 10.6 µM with HCC-2998 colon; 29.3 µM with CAKI-1 renal; 4.48 µM with HCT-116 colon; 35.9 µM in the assay on MALME-3M melanoma; 4.01 µM in the assay with RXF 393 renal. Moreover, the TGI in the assay with HS 578T breast worked out at 23.4 µM; in the assay with CCRF-CEM leukemia, 19.9 µM; with SF-268 CNS, 22.6 µM; in the assay on SK-MEL-2 melanoma, 50.3 µM.

With `CC(=O)O[C@H]1CC[C@@]2(C)[C@@H](CC[C@@H]3[C@@H]2CC(=O)[C@@]2(C)[C@H]3C[C@@H]3CC(C)=CC(=O)[C@@H]32)C1`, the TGI with PC-3 prostate was above 100 µM; in the assay with HCC-2998 colon, above 100 µM; in the assay on CAKI-1 renal, above 100 µM; in the assay on HCT-116 colon, above 100 µM; in the assay on MALME-3M melanoma, above 100 µM; in the assay on RXF 393 renal it was 86.7 µM. For the same compound, the TGI with HS 578T breast is 80.3 µM; with CCRF-CEM leukemia, above 100 µM; in the assay on SF-268 CNS, above 100 µM; in the assay on SK-MEL-2 melanoma it was above 100 µM.

Turning to `CCOc1ccc(-n2cc(-c3ccc(N(C)C)cc3)[n+]3c2CCCCC3)cc1`, the GI50 in the assay on PC-3 prostate was 0.277 µM; in the assay on HCC-2998 colon, 0.188 µM; in the assay with CAKI-1 renal, 10.4 µM; with HCT-116 colon it was 0.267 µM; in the assay with MALME-3M melanoma, 0.269 µM; in the assay with RXF 393 renal it was 4.51 µM. Moreover, the GI50 was 3.33 µM in the assay on HS 578T breast, 1.08 µM in the assay on CCRF-CEM leukemia, 2.2 µM in the assay on SF-268 CNS and 0.286 µM in the assay on SK-MEL-2 melanoma. Further, the TGI in the assay with PC-3 prostate was above 100 µM; with HCC-2998 colon, above 100 µM; with CAKI-1 renal it was above 100 µM; in the assay on HCT-116 colon it was above 100 µM; in the assay on MALME-3M melanoma it was 14.1 µM; in the assay with RXF 393 renal, above 90.3 µM. In addition, the TGI was above 100 µM in the assay on HS 578T breast, above 100 µM in the assay with CCRF-CEM leukemia, above 100 µM in the assay with SF-268 CNS and 6.32 µM with SK-MEL-2 melanoma.

With `COc1ccc(-n2cc(-c3ccc(F)cc3)[nH]c2=O)cc1OC`, the GI50 with PC-3 prostate, in the assay on HCC-2998 colon, in the assay with CAKI-1 renal, in the assay on HCT-116 colon, with MALME-3M melanoma and in the assay on RXF 393 renal was above 100 µM throughout. The GI50 is 98.9 µM in the assay on HS 578T breast, 18.2 µM with CCRF-CEM leukemia, above 100 µM in the assay with SF-268 CNS and above 100 µM with SK-MEL-2 melanoma. In addition, the TGI in the assay with PC-3 prostate, with HCC-2998 colon, with CAKI-1 renal, in the assay with HCT-116 colon, in the assay with MALME-3M melanoma and in the assay with RXF 393 renal was above 100 µM each time. Besides, the TGI in the assay on HS 578T breast is above 100 µM; in the assay on CCRF-CEM leukemia, 34.3 µM; in the assay with SF-268 CNS, above 100 µM; in the assay on SK-MEL-2 melanoma it was above 100 µM.

As for `Cn1cc(C2=C(c3cn(CCCN/C(N)=N\[N+](=O)[O-])c4ccccc34)C(=O)NC2=O)c2ccccc21`, the GI50 in the assay on PC-3 prostate was 3.36 µM; in the assay on HCC-2998 colon, 6.72 µM; in the assay on CAKI-1 renal it was 8.06 µM; in the assay with HCT-116 colon it was 1.82 µM; in the assay on MALME-3M melanoma, 6.38 µM; in the assay on RXF 393 renal, 2 µM. For the same compound, the GI50 was 1.42 µM in the assay on HS 578T breast, 0.0877 µM in the assay on CCRF-CEM leukemia, 3.11 µM in the assay with SF-268 CNS and 0.614 µM with SK-MEL-2 melanoma. Also, the TGI is 17.2 µM with PC-3 prostate; 20.4 µM in the assay with HCC-2998 colon; above 25 µM with CAKI-1 renal; above 25 µM with HCT-116 colon; 15.9 µM with MALME-3M melanoma; 7.3 µM in the assay on RXF 393 renal. Moreover, the TGI was determined as 14.5 µM in the assay with HS 578T breast, 6.63 µM in the assay with CCRF-CEM leukemia, 11.6 µM with SF-268 CNS and 2.23 µM in the assay on SK-MEL-2 melanoma.

The values are drawn from PubChem BioAssay (NCI).
